Our source for the inhibition values is US11274101B2, “Heterocyclic compound” (Takeda Pharmaceutical Company Limited, priority 2017, dated 2022).

This assay has as its target T1, His-hMAGL (recombinant polyhistidine tagged human MAGL protein) (Homo sapiens, UniProt Q99685).
T1 construct: made in house; host or cells: E. coli BL21(DE3)
T1 sequence (Q99685 1-303): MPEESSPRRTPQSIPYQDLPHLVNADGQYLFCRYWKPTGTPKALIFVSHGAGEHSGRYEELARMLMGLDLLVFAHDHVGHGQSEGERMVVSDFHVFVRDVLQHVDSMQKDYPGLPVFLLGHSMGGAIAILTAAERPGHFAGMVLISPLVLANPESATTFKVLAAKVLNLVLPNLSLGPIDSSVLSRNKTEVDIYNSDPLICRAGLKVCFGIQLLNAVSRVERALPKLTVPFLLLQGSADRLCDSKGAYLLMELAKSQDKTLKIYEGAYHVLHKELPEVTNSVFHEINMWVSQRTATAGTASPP
The assay can be described thus: Measurement of MAGL inhibitory activity (arachidonic acid production from 2-arachidonylglycerol, RapidFire-mass spectrometry). In kind it is biochemical. Conditions: test compound 10 μM; MAGL inhibitory rate. As for the experimental part: The His-hMAGL obtained above was diluted with enzyme reaction buffer (10 mM Tris-HCl, pH 7.5, 1 mM EDTA, 0.025 (w/v) % Triton X-100, 0.01% Bovine serum albumin) to a concentration of 7.5 ng/mL. To each well of a 384 well assay plate (Greiner 781280) was added a solution (5 μL) of a test compound dissolved in dimethyl sulfoxide (DMSO), which was diluted with the above-mentioned enzyme reaction buffer, then His-hMAGL solution (5 μL) diluted to a concentration of 7.5 ng/mL was added, and the mixture was incubated at room temperature for 60 min. Thereafter, to each well was added 5 μL of 150 μM 2-arachidonylglycerol (Tocris Bioscience), and the mixture was incubated at room temperature for 10 min. Then, 10 μL of 2% formic acid (Wako Pure Chemical Industries, Ltd.) was added to stop the reaction. Furthermore, acetonitrile (50 μL) containing 3 μM arachidonic acid-d8 (Cayman Chemical Company) was added and the mixture was stirred.
The amount of arachidonic acid in the obtained enzyme reaction mixture was calculated by measuring by RapidFire-mass spectrometry and correcting by the amount of arachidonic acid-d8. High Throughput online solid phase extraction was performed using RapidFire 300™ system (Agilent Technologies, Inc.). Samples were loaded on SPE C4 cartridge (Agilent Technologies, Inc.) and desalted with 0.2 (v/v) % acetic acid (Wako Pure Chemical Industries, Ltd.) in ultrapure water/acetonitrile (70/30, v/v) at a flow rate of 1.5 mL/min, eluted at a flow rate of 0.5 mL/min with 0.2 (v/v) % acetic acid dissolved in acetonitrile/ultrapure water (90/10, v/v), and injected into the mass spectrometry part. The injection needle was washed with ultrapure water (500 millisecond) and acetonitrile (500 millisecond) to minimize carry-over. The suction time (injection loop 5 μL), load/cleansing time, elution time and re-equilibration time were adjusted to 300, 3000, 4250 and 1000 milliseconds, respectively, and the total cycle time was adjusted to about 10.0 seconds. The RapidFire300 system was controlled by RapidFire UI software version 3.6 (Agilent Technologies, Inc.).
The mass spectrometry of the resultant product was performed using API4000™ triple quadrupole mass spectrometer (AB SCIEX) equipped with an electrospray ion sauce (TurboIon Spray™) in a negative selected reaction monitoring (SRM) mode. The conditions of SRM are shown below. The parameters of the instrument were optimized as follows: capillary temperature 600° C., ion spray voltage −4.5 kV, collision gas 8, curtain gas 15 psi, ion source gas 1 60 psi, ion source gas 2 60 psi. The mass spectrometer was controlled by Analyst™ software version 1.5.1 (AB SCIEX). The peak area integration was analyzed using RapidFire integrator software version 3.6 (Agilent Technologies, Inc.).
MAGL inhibitory rate (%) was calculated according to the following calculation formula. (1-(arachidonic acid production amount of test compound addition group−arachidonic acid production amount of enzyme-free group)+(arachidonic acid production amount of test compound-free group−arachidonic acid production amount of enzyme-free group))×100

A word on the inhibition: it is the drop in the measured response relative to a control, in per cent. As to `O=C1NC2(CO1)CN(C(=O)O[C@H]1C[C@@H](Oc3ccc(C(F)(F)F)cc3F)C1)C2` [Example 1, cis-3-(2-fluoro-4-(trifluoromethyl)phenoxy)cyclobutyl 6-oxo-7-oxa-2,5-diazaspiro[3.4]octane-2-carboxylate], the inhibition at 10 µM was determined as 100%.

As to `O=C1NC2(CO1)CN(C(=O)O[C@H]1C[C@@H](OCc3ccccc3)C1)C2` [Example 2, cis-3-(benzyloxy)cyclobutyl 6-oxo-7-oxa-2,5-diazaspiro[3.4]octane-2-carboxylate], the inhibition at 10 µM is 101%.

As to `Cc1ccc(CO[C@H]2C[C@@H](OC(=O)N3CC4(COC(=O)N4)C3)C2)cc1Cl` [Example 3, cis-3-((3-chloro-4-methylbenzyl)oxy)cyclobutyl 6-oxo-7-oxa-2,5-diazaspiro[3.4]octane-2-carboxylate], the inhibition at 10 µM was determined as 101%.

Turning to `Cc1cc(CO[C@H]2C[C@@H](OC(=O)N3CC4(COC(=O)N4)C3)C2)ccc1Cl` [Example 4, cis-3-((4-chloro-3-methylbenzyl)oxy)cyclobutyl 6-oxo-7-oxa-2,5-diazaspiro[3.4]octane-2-carboxylate], the inhibition at 10 µM worked out at 100%.

On to `Cc1ccc(CO[C@H]2C[C@@H](OC(=O)N3CC4(COC(=O)N4)C3)C2)c(F)c1F` [Example 5, cis-3-((2,3-difluoro-4-methylbenzyl)oxy)cyclobutyl 6-oxo-7-oxa-2,5-diazaspiro[3.4]octane-2-carboxylate], for which the inhibition at 10 µM worked out at 99%.

Consider `O=C1NC2(CO1)CN(C(=O)O[C@H]1C[C@@H](OCc3ccc(F)c(F)c3F)C1)C2` [Example 6, cis-3-((2,3,4-trifluorobenzyl)oxy)cyclobutyl 6-oxo-7-oxa-2,5-diazaspiro[3.4]octane-2-carboxylate], for which the inhibition at 10 µM was 101%.

With `O=C1NC2(CO1)CN(C(=O)O[C@H]1C[C@@H](OCc3cc(F)c(F)cc3F)C1)C2` [Example 7, cis-3-((2,4,5-trifluorobenzyl)oxy)cyclobutyl 6-oxo-7-oxa-2,5-diazaspiro[3.4]octane-2-carboxylate], the inhibition at 10 µM is 100%.

For the molecule `O=C1NC2(CO1)CN(C(=O)O[C@H]1C[C@@H](OCc3c(F)cc(F)cc3F)C1)C2` [Example 8, cis-3-((2,4,6-trifluorobenzyl)oxy)cyclobutyl 6-oxo-7-oxa-2,5-diazaspiro[3.4]octane-2-carboxylate], the inhibition at 10 µM was 100%.

Consider `O=C1NC2(CO1)CN(C(=O)O[C@H]1C[C@@H](OCc3ccc(Cl)c(Cl)c3)C1)C2` [Example 9, cis-3-((3,4-dichlorobenzyl)oxy)cyclobutyl 6-oxo-7-oxa-2,5-diazaspiro[3.4]octane-2-carboxylate], for which the inhibition at 10 µM is 99%.

With `O=C1NC2(CO1)CN(C(=O)O[C@H]1C[C@@H](OCc3ccc(C(F)(F)F)cc3F)C1)C2` [Example 10, cis-3-((2-fluoro-4-(trifluoromethyl)benzyl)oxy)cyclobutyl 6-oxo-7-oxa-2,5-diazaspiro[3.4]octane-2-carboxylate], the inhibition at 10 µM amounted to 99%.

Consider `O=C1NC2(CO1)CN(C(=O)O[C@H]1C[C@@H](OCc3ccc(C(F)(F)F)c(Cl)c3)C1)C2` [Example 11, cis-3-((3-chloro-4-(trifluoromethyl)benzyl)oxy)cyclobutyl 6-oxo-7-oxa-2,5-diazaspiro[3.4]octane-2-carboxylate], for which the inhibition at 10 µM was determined as 100%.

With `Cc1ccc(OC[C@H]2C[C@@H](OC(=O)N3CC4(COC(=O)N4)C3)C2)c(F)c1` [Example 12, cis-3-((2-fluoro-4-methylphenoxy)methyl)cyclobutyl 6-oxo-7-oxa-2,5-diazaspiro[3.4]octane-2-carboxylate], the inhibition at 10 µM is 101%.

In the case of `Cc1cc(F)ccc1OC[C@H]1C[C@@H](OC(=O)N2CC3(COC(=O)N3)C2)C1` [Example 13, cis-3-((4-fluoro-2-methylphenoxy)methyl)cyclobutyl 6-oxo-7-oxa-2,5-diazaspiro[3.4]octane-2-carboxylate], the inhibition at 10 µM amounted to 102%.

For `O=C1NC2(CO1)CN(C(=O)O[C@H]1C[C@@H](COc3ccc(F)cc3Cl)C1)C2` [Example 14, cis-3-((2-chloro-4-fluorophenoxy)methyl)cyclobutyl 6-oxo-7-oxa-2,5-diazaspiro[3.4]octane-2-carboxylate], the inhibition at 10 µM amounted to 98%.

Regarding `O=C1NC2(CO1)CN(C(=O)O[C@H]1C[C@@H](COc3ccc(Cl)cc3F)C1)C2` [Example 15, cis-3-((4-chloro-2-fluorophenoxy)methyl)cyclobutyl 6-oxo-7-oxa-2,5-diazaspiro[3.4]octane-2-carboxylate], the inhibition at 10 µM came out at 103%.

As to `O=C1NC2(CO1)CN(C(=O)O[C@H]1C[C@@H](COc3cc(F)c(F)cc3F)C1)C2` [Example 17, cis-3-((2,4,5-trifluorophenoxy)methyl)cyclobutyl 6-oxo-7-oxa-2,5-diazaspiro[3.4]octane-2-carboxylate], the inhibition at 10 µM was found to be 101%.

On to `O=C1NC2(CO1)CN(C(=O)O[C@H]1C[C@@H](COc3ccc(C(F)(F)F)cc3F)C1)C2` [Example 19, cis-3-((2-fluoro-4-(trifluoromethyl)phenoxy)methyl)cyclobutyl 6-oxo-7-oxa-2,5-diazaspiro[3.4]octane-2-carboxylate], for which the inhibition at 10 µM amounted to 98%.

For `O=C1NC2(CO1)CN(C(=O)O[C@H]1C[C@@H](COc3ccc(C(F)(F)F)cc3Cl)C1)C2` [Example 20, cis-3-((2-chloro-4-(trifluoromethyl)phenoxy)methyl)cyclobutyl 6-oxo-7-oxa-2,5-diazaspiro[3.4]octane-2-carboxylate], the inhibition at 10 µM was determined as 100%.

`O=C1NC2(CO1)CN(C(=O)O[C@H]1C[C@H](COc3ccc(F)c(F)c3F)C1)C2` [Example 21, trans-3-((2,3,4-trifluorophenoxy)methyl)cyclobutyl 6-oxo-7-oxa-2,5-diazaspiro[3.4]octane-2-carboxylate]: the inhibition at 10 µM amounted to 100%.

`O=C1NC2(CO1)CN(C(=O)O[C@H]1C[C@H](COc3ccc(C(F)(F)F)cc3F)C1)C2` [Example 22, trans-3-((2-fluoro-4-(trifluoromethyl)phenoxy)methyl)cyclobutyl 6-oxo-7-oxa-2,5-diazaspiro[3.4]octane-2-carboxylate]: the inhibition at 10 µM was 103%.

Regarding `O=C1NC2(CO1)CN(C(=O)OC[C@H]1C[C@@H](Oc3c(F)cc(F)cc3F)C1)C2` [Example 23, (cis-3-(2,4,6-trifluorophenoxy)cyclobutyl)methyl 6-oxo-7-oxa-2,5-diazaspiro[3.4]octane-2-carboxylate], the inhibition at 10 µM was 100%.

On to `O=C1NC2(CO1)CN(C(=O)OC[C@H]1C[C@@H](Oc3ccc(C(F)(F)F)cc3F)C1)C2` [Example 24, (cis-3-(2-fluoro-4-(trifluoromethyl)phenoxy)cyclobutyl)methyl 6-oxo-7-oxa-2,5-diazaspiro[3.4]octane-2-carboxylate], for which the inhibition at 10 µM stood at 103%.

Regarding `O=C1NC2(CO1)CN(C(=O)OC[C@H]1C[C@H](Oc3c(F)cc(F)cc3F)C1)C2` [Example 25, (trans-3-(2,4,6-trifluorophenoxy)cyclobutyl)methyl 6-oxo-7-oxa-2,5-diazaspiro[3.4]octane-2-carboxylate], the inhibition at 10 µM amounted to 100%.

In the case of `O=C1NC2(CO1)CN(C(=O)OC[C@H]1C[C@@H](Oc3ccc(C(F)(F)F)cc3Cl)C1)C2` [Example 26, (cis-3-(2-chloro-4-(trifluoromethyl)phenoxy)cyclobutyl)methyl 6-oxo-7-oxa-2,5-diazaspiro[3.4]octane-2-carboxylate], the inhibition at 10 µM turned out to be 100%.

Regarding `O=C1NC2(CO1)CN(C(=O)OC[C@H]1C[C@H](Oc3ccc(C(F)(F)F)cc3Cl)C1)C2` [Example 27, (trans-3-(2-chloro-4-(trifluoromethyl)phenoxy)cyclobutyl)methyl 6-oxo-7-oxa-2,5-diazaspiro[3.4]octane-2-carboxylate], the inhibition at 10 µM was determined as 100%.
